Experimental data from US9452986B2, “6-heteroaryloxy- or 6-aryloxy-quinoline-2-carboxamides and method of use” (AbbVie Inc., priority 2014, dated 2016).
Like-named read-outs stand apart in the source and are kept apart here.

Target: recombinant human Nav1.7 (Homo sapiens (Human), UniProt Q15858)
Test: FRET-based membrane potential assay, recombinant human sodium channel Nav1.7
Format: cell-based
Settings: read-out: FRET-Membrane Potential Nav1.7 IC50
In short: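 Channel activation used veratridine at its EC80, set by a dilution curve each experiment, together with Leiurus scorpion venom, added 3 min after compound. Membrane-potential ratio signals from FLIPR Tetra in HEPES-buffered HBSS were fitted to a four-parameter Hill equation for percent inhibition and IC50.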

[1] = HEK293 cells stably expressing recombinant human Nav1.7, veratridine + scorpion venom depolarization

Sequence of recombinant human Nav1.7 (Q15858 whole entry): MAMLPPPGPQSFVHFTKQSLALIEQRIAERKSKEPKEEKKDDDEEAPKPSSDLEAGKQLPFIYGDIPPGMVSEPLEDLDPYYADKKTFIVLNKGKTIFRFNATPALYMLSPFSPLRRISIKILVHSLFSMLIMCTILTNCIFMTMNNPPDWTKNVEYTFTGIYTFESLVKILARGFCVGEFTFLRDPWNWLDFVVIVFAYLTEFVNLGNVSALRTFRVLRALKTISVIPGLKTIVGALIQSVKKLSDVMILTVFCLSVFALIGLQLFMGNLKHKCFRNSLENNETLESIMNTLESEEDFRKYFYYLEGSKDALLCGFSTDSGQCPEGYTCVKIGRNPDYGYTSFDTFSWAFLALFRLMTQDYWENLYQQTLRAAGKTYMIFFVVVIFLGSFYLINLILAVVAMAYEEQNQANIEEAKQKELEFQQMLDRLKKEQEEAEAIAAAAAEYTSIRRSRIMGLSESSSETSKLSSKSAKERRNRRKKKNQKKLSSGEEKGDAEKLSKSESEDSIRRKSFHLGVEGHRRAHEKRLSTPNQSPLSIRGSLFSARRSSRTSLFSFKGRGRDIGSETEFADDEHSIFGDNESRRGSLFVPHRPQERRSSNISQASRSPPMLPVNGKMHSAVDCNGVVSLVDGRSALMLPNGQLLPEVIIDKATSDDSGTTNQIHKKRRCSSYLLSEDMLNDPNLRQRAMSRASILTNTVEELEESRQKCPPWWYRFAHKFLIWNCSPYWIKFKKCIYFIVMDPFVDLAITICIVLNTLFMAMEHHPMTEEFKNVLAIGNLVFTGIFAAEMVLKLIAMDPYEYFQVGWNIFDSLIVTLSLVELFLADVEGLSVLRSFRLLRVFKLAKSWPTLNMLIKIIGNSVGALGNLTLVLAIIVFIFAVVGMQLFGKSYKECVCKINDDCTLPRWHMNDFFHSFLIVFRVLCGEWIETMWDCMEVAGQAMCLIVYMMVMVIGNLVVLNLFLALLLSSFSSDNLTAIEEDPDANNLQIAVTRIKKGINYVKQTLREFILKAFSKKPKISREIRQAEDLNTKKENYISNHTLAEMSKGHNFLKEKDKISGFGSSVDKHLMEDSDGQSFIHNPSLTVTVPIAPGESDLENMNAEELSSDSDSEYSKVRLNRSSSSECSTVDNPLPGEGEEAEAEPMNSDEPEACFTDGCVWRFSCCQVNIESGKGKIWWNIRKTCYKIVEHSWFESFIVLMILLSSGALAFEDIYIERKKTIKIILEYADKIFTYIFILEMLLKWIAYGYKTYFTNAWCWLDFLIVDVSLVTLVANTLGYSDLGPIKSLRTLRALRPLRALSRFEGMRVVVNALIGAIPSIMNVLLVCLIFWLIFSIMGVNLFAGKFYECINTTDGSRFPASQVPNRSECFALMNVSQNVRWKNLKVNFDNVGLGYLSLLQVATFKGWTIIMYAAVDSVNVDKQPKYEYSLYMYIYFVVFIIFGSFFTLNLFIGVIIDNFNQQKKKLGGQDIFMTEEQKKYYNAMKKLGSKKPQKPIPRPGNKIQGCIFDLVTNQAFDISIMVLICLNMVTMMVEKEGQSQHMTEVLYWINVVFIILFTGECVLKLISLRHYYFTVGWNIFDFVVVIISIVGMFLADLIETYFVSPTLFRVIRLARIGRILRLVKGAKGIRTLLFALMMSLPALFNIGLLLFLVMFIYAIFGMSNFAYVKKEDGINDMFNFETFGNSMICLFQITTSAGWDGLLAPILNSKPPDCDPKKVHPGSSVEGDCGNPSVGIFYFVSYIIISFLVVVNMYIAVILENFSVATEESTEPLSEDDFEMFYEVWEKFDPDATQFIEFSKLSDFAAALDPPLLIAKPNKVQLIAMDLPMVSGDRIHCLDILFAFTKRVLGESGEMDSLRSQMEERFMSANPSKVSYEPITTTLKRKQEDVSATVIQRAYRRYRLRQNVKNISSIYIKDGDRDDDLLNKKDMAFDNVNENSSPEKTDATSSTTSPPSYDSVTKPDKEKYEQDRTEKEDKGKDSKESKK

N#Cc1ccc(Oc2ccc3nc(C(=O)N[C@@H]4CCC[C@@H]4O)ccc3c2)cc1 [Example 131, 6-(4-cyanophenoxy)-N-[(1R,2S)-2-hydroxycyclopentyl]quinoline-2-carboxamide]
IC50: 1.15 µM

O=C(NCC1COCCN1Cc1ccccc1)c1ccc2cc(Oc3ccc(C(F)(F)F)cn3)ccc2n1 (stereo not drawn) [Example 361, N-[(4-benzylmorpholin-3-yl)methyl]-6-{[5-(trifluoromethyl)pyridin-2-yl]oxy}quinoline-2-carboxamide]
IC50 [1]: 2.88 µM

CS(=O)(=O)c1ccc(Oc2ccc3nc(C(=O)N4CCNCC4)ccc3c2)cc1 [Example 214, {6-[4-(methylsulfonyl)phenoxy]quinolin-2-yl}(piperazin-1-yl)methanone]
IC50 [1]: > 20 µM

CC(C)(C)CC(=O)N1CCN(C(=O)c2ccc3cc(Oc4ccc(C(F)(F)F)cn4)ccc3n2)CC1 [Example 309, 3,3-dimethyl-1-{4-[(6-{[5-(trifluoromethyl)pyridin-2-yl]oxy}quinolin-2-yl)carbonyl]piperazin-1-yl}butan-1-one]
IC50 [1]: 3.57 µM

O=C(c1ccc2cc(Oc3ccc(C(F)(F)F)cn3)ccc2n1)N1CCN(Cc2ccccn2)CC1 [Example 308, [4-(pyridin-2-ylmethyl)piperazin-1-yl](6-{[5-(trifluoromethyl)pyridin-2-yl]oxy}quinolin-2-yl)methanone]
IC50 [1]: 3.07 µM

O=C(c1ccc2cc(Oc3ccc(C(F)(F)F)cn3)ccc2n1)N1CCCCCC1 [Example 238, azepan-1-yl(6-{[5-(trifluoromethyl)pyridin-2-yl]oxy}quinolin-2-yl)methanone]
IC50 [1]: 1.54 µM

COCC1(F)CCN(C(=O)c2ccc3cc(Oc4ccc(C(F)(F)F)cn4)ccc3n2)C1 (stereo not drawn) [Example 487, [3-fluoro-3-(methoxymethyl)pyrrolidin-1-yl](6-{[5-(trifluoromethyl)pyridin-2-yl]oxy}quinolin-2-yl)methanone]
IC50 [1]: 0.919 µM

O=C(NCCC(=O)N1CCCC1)c1ccc2cc(Oc3ccc(C(F)(F)F)cn3)ccc2n1 [Example 445, N-[3-oxo-3-(pyrrolidin-1-yl)propyl]-6-{[5-(trifluoromethyl)pyridin-2-yl]oxy}quinoline-2-carboxamide]
IC50 [1]: 0.268 µM

O=C(c1ccc2cc(Oc3ccc(C(F)(F)F)cn3)ccc2n1)N1CCN(c2ncccn2)CC1 [Example 270, [4-(pyrimidin-2-yl)piperazin-1-yl](6-{[5-(trifluoromethyl)pyridin-2-yl]oxy}quinolin-2-yl)methanone]
IC50 [1]: 3.08 µM

CN(CC(=O)NC1CC1)C(=O)c1ccc2cc(Oc3ccc(C(F)(F)F)cn3)ccc2n1 [Example 452, N-[2-(cyclopropylamino)-2-oxoethyl]-N-methyl-6-{[5-(trifluoromethyl)pyridin-2-yl]oxy}quinoline-2-carboxamide]
IC50 [1]: 3.21 µM

O=C(c1ccc2cc(Oc3ccc(C(F)(F)F)cn3)ccc2n1)N1C[C@@H]2C[C@@H](CO)[C@H]1C2 [Example 257, [(1R,4R,6R)-6-(hydroxymethyl)-2-azabicyclo[2.2.1]hept-2-yl](6-{[5-(trifluoromethyl)pyridin-2-yl]oxy}quinolin-2-yl)methanone]
IC50 [1]: 10.6 µM

N#Cc1ccc(Oc2ccc3nc(C(=O)N4CCC(N5CCOCC5)CC4)ccc3c2)cc1 [Example 138, 4-[(2-{[4-(morpholin-4-yl)piperidin-1-yl]carbonyl}quinolin-6-yl)oxy]benzonitrile]
IC50 [1]: 2.47 µM

COC1(CNC(=O)c2ccc3cc(Oc4ccc(C(F)(F)F)cn4)ccc3n2)CCC1 [Example 591, N-[(1-methoxycyclobutyl)methyl]-6-{[5-(trifluoromethyl)pyridin-2-yl]oxy}quinoline-2-carboxamide]
IC50 [1]: 0.737 µM

O=C(c1ccc2cc(Oc3ncc(F)cn3)ccc2n1)N1CCNCC1 [Example 244, {6[(5-fluoropyrimidin-2-yl)oxy]quinolin-2-yl}(piperazin-1-yl)methanone]
IC50 [1]: > 20 µM

CN1C(=O)CN(C(=O)c2ccc3cc(Oc4ccc(C(F)(F)F)cn4)ccc3n2)CC12COC2 [Example 188, 5-methyl-8-[(6-{[5-(trifluoromethyl)pyridin-2-yl]oxy}quinolin-2-yl)carbonyl]-2-oxa-5,8-diazaspiro[3.5]nonan-6-one]
IC50 [1]: 9.53 µM

CC(C)C(CO)NC(=O)c1ccc2cc(Oc3ccc(C#N)cc3)ccc2n1 (stereo not drawn) [Example 95, 6-(4-cyanophenoxy)-N-(1-hydroxy-3-methylbutan-2-yl)quinoline-2-carboxamide]
IC50 [1]: 4.87 µM

O=C(c1ccc2cc(Oc3ccc(C(F)(F)F)cn3)ccc2n1)N1CC2(CCCOC2)C1 [Example 533, 6-oxa-2-azaspiro[3.5]non-2-yl(6-{[5-(trifluoromethyl)pyridin-2-yl]oxy}quinolin-2-yl)methanone]
IC50 [1]: 2.4 µM

O=C(c1ccc2cc(Oc3ccc(C(F)F)cn3)ccc2n1)N1CC[C@@H](F)C1 [Example 575, (6-{[5-(difluoromethyl)pyridin-2-yl]oxy}quinolin-2-yl) [(3R)-3-fluoropyrrolidin-1-yl]methanone]
IC50 [1]: 12.1 µM

O=C(NCC(=O)N1CC[C@H](O)C1)c1ccc2cc(Oc3ccc(C(F)(F)F)cn3)ccc2n1 [Example 560, N-{2-[(3S)-3-hydroxypyrrolidin-1-yl]-2-oxoethyl}-6-{[5-(trifluoromethyl)pyridin-2-yl]oxy}quinoline-2-carboxamide]
IC50: 2.87 µM

CS(=O)(=O)NC1CN(C(=O)c2ccc3cc(Oc4ccc(C(F)(F)F)cn4)ccc3n2)C1 [Example 428, N-{1-[(6-{[5-(trifluoromethyl)pyridin-2-yl]oxy}quinolin-2-yl)carbonyl]azetidin-3-yl}methanesulfonamide]
IC50 [1]: 10.3 µM

CCN(CC)C(=O)CNC(=O)c1ccc2cc(Oc3ccc(C(F)F)cn3)ccc2n1 [Example 461, N-[2-(diethylamino)-2-oxoethyl]-6-{[5-(difluoromethyl)pyridin-2-yl]oxy}quinoline-2-carboxamide]
IC50 [1]: 0.354 µM

Cc1cnc(Oc2ccc3nc(C(=O)NC4CCS(=O)(=O)C4)ccc3c2)nc1 (stereo not drawn) [Example 161, N-(1,1-dioxidotetrahydrothiophen-3-yl)-6-[(5-methylpyrimidin-2-yl)oxy]quinoline-2-carboxamide]
IC50: > 20 µM

Cn1cc(S(=O)(=O)N2CCN(C(=O)c3ccc4cc(Oc5ccc(C(F)(F)F)cn5)ccc4n3)CC2)cn1 [Example 387, {4-[(1-methyl-1H-pyrazol-4-yl)sulfonyl]piperazin-1-yl}(6-{[5-(trifluoromethyl)pyridin-2-yl]oxy}quinolin-2-yl)methanone]
IC50 [1]: 2.48 µM

N#Cc1ccc(Oc2ccc3nc(C(=O)NCCN4CCCCC4)ccc3c2)cc1 [Example 82, 6-(4-cyanophenoxy)-N-[2-(piperidin-1-yl)ethyl]quinoline-2-carboxamide]
IC50: 0.222 µM

CNC(=O)C1CN(C(=O)c2ccc3cc(Oc4ccc(C(F)(F)F)cn4)ccc3n2)CCN1 (stereo not drawn) [Example 322, N-methyl-4-[(6-{[5-(trifluoromethyl)pyridin-2-yl]oxy}quinolin-2-yl)carbonyl]piperazine-2-carboxamide]
IC50: 12 µM

O=C(NCC(=O)N1C[C@H](O)C[C@H]1CO)c1ccc2cc(Oc3ccc(C(F)(F)F)cn3)ccc2n1 [Example 564, N-{2-[(2S,4R)-4-hydroxy-2-(hydroxymethyl)pyrrolidin-1-yl]-2-oxoethyl}-6-{[5-(trifluoromethyl)pyridin-2-yl]oxy}quinoline-2-carboxamide]
IC50 [1]: 16.6 µM

N#Cc1ccc(Oc2ccc3nc(C(=O)NCCN4CCCC4)ccc3c2)cc1 [Example 96, 6-(4-cyanophenoxy)-N-[2-(pyrrolidin-1-yl)ethyl]quinoline-2-carboxamide]
IC50 [1]: 0.329 µM

O=C(NCCF)c1ccc2cc(Oc3ccc(C(F)(F)F)cn3)ccc2n1 [Example 346, N-(2-fluoroethyl)-6-{[5-(trifluoromethyl)pyridin-2-yl]oxy}quinoline-2-carboxamide]
IC50 [1]: 2.5 µM

O=C(c1ccc2cc(Oc3ccc(C(F)(F)F)cn3)ccc2n1)N1CCN(Cc2cocn2)CC1 [Example 315, [4-(1,3-oxazol-4-ylmethyl)piperazin-1-yl](6-{[5-(trifluoromethyl)pyridin-2-yl]oxy}quinolin-2-yl)methanone]
IC50 [1]: 6.12 µM

CO[C@H]1C[C@H](NC(=O)c2ccc3cc(Oc4ccc(C(F)(F)F)cn4)ccc3n2)C1 [Example 397, N-(trans-3-methoxycyclobutyl)-6-{[5-(trifluoromethyl)pyridin-2-yl]oxy}quinoline-2-carboxamide]
IC50 [1]: 0.896 µM

O=C(c1ccc2cc(Oc3ccc(C(F)(F)F)cn3)ccc2n1)N1CCN(C(=O)C2CC2)CC1 [Example 290, cyclopropyl{4-[(6-{[5-(trifluoromethyl)pyridin-2-yl]oxy}quinolin-2-yl)carbonyl]piperazin-1-yl}methanone]
IC50 [1]: 9.86 µM

CC(=O)N[C@@H]1CCN(C(=O)c2ccc3cc(Oc4ccc(C(F)(F)F)cn4)ccc3n2)C1 [Example 438, N-{(3R)-1-[(6-{[5-(trifluoromethyl)pyridin-2-yl]oxy}quinolin-2-yl)carbonyl]pyrrolidin-3-yl}acetamide]
IC50: 12.5 µM

CC(C)(CO)NC(=O)c1ccc2cc(Oc3ccc(C#N)cc3)ccc2n1 [Example 124, 6-(4-cyanophenoxy)-N-(1-hydroxy-2-methylpropan-2-yl)quinoline-2-carboxamide]
IC50: 2.14 µM

O=C(NC1CC(N2CCOCC2)C1)c1ccc2cc(Oc3ccc(C(F)(F)F)cn3)ccc2n1 (stereo not drawn) [Example 433, N-[3-(morpholin-4-yl)cyclobutyl]-6-{[5-(trifluoromethyl)pyridin-2-yl]oxy}quinoline-2-carboxamide]
IC50 [1]: 0.442 µM

O=C(NC1COC1)c1ccc2cc(Oc3ccc(C(F)F)cn3)ccc2n1 [Example 475, 6-{[5-(difluoromethyl)pyridin-2-yl]oxy}-N-(oxetan-3-yl)quinoline-2-carboxamide]
IC50: 1.96 µM

O=C(NCC(=O)N1CCOCC1)c1ccc2cc(Oc3ccc(C(F)(F)F)cn3)ccc2n1 [Example 443, N-[2-(morpholin-4-yl)-2-oxoethyl]-6-{[5-(trifluoromethyl)pyridin-2-yl]oxy}quinoline-2-carboxamide]
IC50 [1]: 0.703 µM
